Test results: patent publication US11236112B2 (GENFLEET THERAPEUTICS (SHANGHAI) INC., priority 2017, dated 2022)

Key:
[1] = Solubility of different salt types in biological vehicle (SGF, FeSSIF, FaSSIF), HPLC; assay type: physicochemical; details: 37° C.; for pH value: supernatant
Method: 1 ml of biological vehicle solution (FaSSIF, FeSSIF and SGF) was pipetted respectively into a 1.5-ml glass bottle, and then added to the above-mentioned solution at a gradient of 2 mg until 10 mg or the mixture was saturated. The mixture was prepared in 2 parts in parallel, and then shaken at 37° C. Samples were taken after 4 hours and 24 hours, respectively. The samples taken were centrifuged quickly, and the supernatant was measured for pH value and diluted with a diluent to a suitable multiple, and then the concentration was determined by HPLC.

[2] = High-temperature stability test (60° C., open container); assay type: physicochemical
[3] = High-humidity stability test (40° C./75% humidity, open); assay type: physicochemical
[4] = Approximate solubility in pure water; assay type: physicochemical; details: thermodynamic from solid, room temperature, 2 mg sample, read-out: Approximate solubility S
Method: 2 mg of the sample of each compound was weighed and added to a 1.5-ml glass vial, and a certain volume of pure water was added with a pipette, and ultrasonic solubilization was performed appropriately. The study was conducted at room temperature and tested for solubilization.

[5] = Hygroscopicity by dynamic vapor sorption (DVS); assay type: physicochemical; details: 25° C./80% RH
Method: In the present invention, the dynamic vapor sorption (DVS) is determined by using the following method: instrument model: SMS DVS Advantage dynamic vapor sorption instrument
Test condition: place 10-15 mg of sample in a DVS sample disk for testing.
The detailed DVS parameters are as follows: […]
balance: dm/dt=0.01%/min (minimum: 10 min; maximum: 180 min) drying: dry for 120 min at 0% RH
RH (%) test step range: 0%-90%-0%
The classification of hygroscopicity evaluation is as follows:
1. Experimental material: SMS DVS Advantage dynamic vapor sorption instrument
2. Experimental method: an appropriate amount of the crystal form B of the compound of formula (II) was placed in a DVS sample disk for DVS analysis.

TGF-βRI = target: T1, TGF-βRI (Homo sapiens, UniProt P36897); experiment: TGFβ-RI receptor binding activity screening in vitro (enzyme activity, IC50)
T1 sequence (P36897 34-503): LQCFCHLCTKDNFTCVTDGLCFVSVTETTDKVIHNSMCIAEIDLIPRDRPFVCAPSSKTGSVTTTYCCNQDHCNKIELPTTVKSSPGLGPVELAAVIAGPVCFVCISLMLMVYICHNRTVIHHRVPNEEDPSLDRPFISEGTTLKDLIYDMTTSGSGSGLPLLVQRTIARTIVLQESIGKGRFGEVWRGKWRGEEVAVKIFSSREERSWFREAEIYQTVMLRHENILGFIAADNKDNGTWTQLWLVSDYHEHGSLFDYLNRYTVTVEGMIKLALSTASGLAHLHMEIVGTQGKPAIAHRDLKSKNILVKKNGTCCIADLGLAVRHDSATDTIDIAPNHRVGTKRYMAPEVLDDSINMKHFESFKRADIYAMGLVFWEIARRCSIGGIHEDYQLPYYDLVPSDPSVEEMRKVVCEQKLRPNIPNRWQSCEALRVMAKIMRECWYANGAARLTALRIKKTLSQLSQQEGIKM

liver cancer patients = details: phase 2 clinical trial, after treatment; cited from earlier work

Compound: Cc1cccc(-c2nn3c(c2-c2ccc4ncnn4c2/C=C/C(N)=O)CCC3)n1 [Sulphate]
- Concentration ([1]; FaSSIF, 4 hours): 4998 µg/mL
- State ([1]; FaSSIF, 4 hours): soluble
- pH value ([1]; FaSSIF, 4 hours): 2.44
- Concentration ([1]; FaSSIF, 24 hours): 5000 µg/mL
- State ([1]; FaSSIF, 24 hours): soluble
- pH value ([1]; FaSSIF, 24 hours): 2.50
- Concentration ([1]; FeSSIF, 4 hours): 1530 µg/mL
- State ([1]; FeSSIF, 4 hours): turbid
- pH value ([1]; FeSSIF, 4 hours): 4.22
- Concentration ([1]; FeSSIF, 24 hours): 1504 µg/mL
- State ([1]; FeSSIF, 24 hours): turbid
- pH value ([1]; FeSSIF, 24 hours): 4.21
- Concentration ([1]; SGF, 4 hours): 4885 µg/mL
- State ([1]; SGF, 4 hours): soluble
- pH value ([1]; SGF, 4 hours): 1.77
- Concentration ([1]; SGF, 24 hours): 4952 µg/mL
- State ([1]; SGF, 24 hours): soluble
- pH value ([1]; SGF, 24 hours): 1.84

Compound: Cc1cccc(-c2nn3c(c2-c2ccc4ncnn4c2/C=C/C(N)=O)CCC3)n1
- Content ([2]; day 0): 99.0%
- Study on crystal form ([2]; day 0): Crystal form A
- Total impurities ([2]; day 0): 0.57%
- Content ([2]; day 30): 97.5%
- Study on crystal form ([2]; day 30): Crystal form A
- Total impurities ([2]; day 30): 0.56%
- Content ([2]; day 60): 100.0%
- Study on crystal form ([2]; day 60): Crystal form A
- Total impurities ([2]; day 60): 0.58%
- Content ([2]; day 90): 99.9%
- Study on crystal form ([2]; day 90): Crystal form A
- Total impurities ([2]; day 90): 0.55%
- Stability under high temperature conditions (conclusion) ([2]; up to 90 days): Conclusion: The high-temperature stability test shows that crystal form A of the compound of formula (I) has good stability under high temperature conditions.
- Content ([3]; day 0): 99.0%
- Total impurities ([3]; day 0): 0.57%
- Content ([3]; day 30): 100.6%
- Total impurities ([3]; day 30): 0.57%
- Content ([3]; day 60): 101.1%
- Total impurities ([3]; day 60): 0.58%
- Content ([3]; day 90): 100.4%
- Total impurities ([3]; day 90): 0.58%
- Stability under high humidity conditions (conclusion) ([3]; up to 90 days): Conclusion: The high-humidity stability test shows that the crystal form A of the compound of formula (I) has good stability under high humidity conditions.

Compound: Cc1cccc(-c2nn3c(c2-c2ccc4ncnn4c2/C=C/C(N)=O)CCC3)n1.Cl [Hydrochloride]
- Concentration ([1]; FaSSIF, 4 hours): 4378 µg/mL
- State ([1]; FaSSIF, 4 hours): soluble
- pH value ([1]; FaSSIF, 4 hours): 3.96
- Concentration ([1]; FaSSIF, 24 hours): 4195 µg/mL
- State ([1]; FaSSIF, 24 hours): soluble
- pH value ([1]; FaSSIF, 24 hours): 3.97
- Concentration ([1]; FeSSIF, 4 hours): 1028 µg/mL
- State ([1]; FeSSIF, 4 hours): turbid
- pH value ([1]; FeSSIF, 4 hours): 4.52
- Concentration ([1]; FeSSIF, 24 hours): 1065 µg/mL
- State ([1]; FeSSIF, 24 hours): turbid
- pH value ([1]; FeSSIF, 24 hours): 4.52
- Concentration ([1]; SGF, 4 hours): 4343 µg/mL
- State ([1]; SGF, 4 hours): soluble
- pH value ([1]; SGF, 4 hours): 2.04
- Concentration ([1]; SGF, 24 hours): 4427 µg/mL
- State ([1]; SGF, 24 hours): soluble
- pH value ([1]; SGF, 24 hours): 2.05

Compound: Cc1ccc(S(=O)(=O)O)cc1.Cc1cccc(-c2nn3c(c2-c2ccc4ncnn4c2/C=C/C(N)=O)CCC3)n1 [Compound of formula (II)]
- Concentration ([1]; FaSSIF, 4 hours): 10150 µg/mL
- State ([1]; FaSSIF, 4 hours): clear
- pH value ([1]; FaSSIF, 4 hours): 3.15
- Concentration ([1]; FaSSIF, 24 hours): 10720 µg/mL
- State ([1]; FaSSIF, 24 hours): clear
- pH value ([1]; FaSSIF, 24 hours): 3.13
- Concentration ([1]; FeSSIF, 4 hours): 10840 µg/mL
- State ([1]; FeSSIF, 4 hours): clear
- pH value ([1]; FeSSIF, 4 hours): 1.89
- Concentration ([1]; FeSSIF, 24 hours): 10580 µg/mL
- State ([1]; FeSSIF, 24 hours): clear
- pH value ([1]; FeSSIF, 24 hours): 1.87
- Concentration ([1]; SGF, 4 hours): 1610 µg/mL
- State ([1]; SGF, 4 hours): Suspension
- pH value ([1]; SGF, 4 hours): 3.45
- Concentration ([1]; SGF, 24 hours): 1470 µg/mL
- State ([1]; SGF, 24 hours): Suspension
- pH value ([1]; SGF, 24 hours): 4.26
- solubility [4]: 49 to 98 mg/mL

Compound: CS(=O)(=O)O.Cc1cccc(-c2nn3c(c2-c2ccc4ncnn4c2/C=C/C(N)=O)CCC3)n1
- Concentration ([1]; FaSSIF, 4 hours): 5159 µg/mL
- State ([1]; FaSSIF, 4 hours): soluble
- pH value ([1]; FaSSIF, 4 hours): 4.16
- Concentration ([1]; FaSSIF, 24 hours): 3704 µg/mL
- State ([1]; FaSSIF, 24 hours): turbid
- pH value ([1]; FaSSIF, 24 hours): 3.71
- Concentration ([1]; FeSSIF, 4 hours): 852 µg/mL
- State ([1]; FeSSIF, 4 hours): turbid
- pH value ([1]; FeSSIF, 4 hours): 4.58
- Concentration ([1]; FeSSIF, 24 hours): 925 µg/mL
- State ([1]; FeSSIF, 24 hours): turbid
- pH value ([1]; FeSSIF, 24 hours): 4.60
- Concentration ([1]; SGF, 4 hours): 5103 µg/mL
- State ([1]; SGF, 4 hours): soluble
- pH value ([1]; SGF, 4 hours): 2.08
- Concentration ([1]; SGF, 24 hours): 5163 µg/mL
- State ([1]; SGF, 24 hours): soluble
- pH value ([1]; SGF, 24 hours): 2.14

Compound: Cc1ccc(S(=O)(=O)O)cc1.Cc1cccc(-c2nn3c(c2-c2ccc4ncnn4c2/C=C/C(N)=O)CCC3)n1
- Classification of hygroscopicity [5]: slightly hygroscopic
- Hygroscopic weight gain ΔW [5]: 0.673%

Compound: Cc1cccc(-c2nn3c(c2-c2ccc4ncnn4c2/C=C/C(N)=O)CCC3)n1 [Compound of formula (I)]
- IC50 (TGF-βRI): 0.04 µM
- Concentration ([1]; FaSSIF, 4 hours): 352 µg/mL
- State ([1]; FaSSIF, 4 hours): turbid
- pH value ([1]; FaSSIF, 4 hours): 6.45
- Concentration ([1]; FaSSIF, 24 hours): 421 µg/mL
- State ([1]; FaSSIF, 24 hours): turbid
- pH value ([1]; FaSSIF, 24 hours): 6.42
- Concentration ([1]; FeSSIF, 4 hours): 565 µg/mL
- State ([1]; FeSSIF, 4 hours): turbid
- pH value ([1]; FeSSIF, 4 hours): 4.97
- Concentration ([1]; FeSSIF, 24 hours): 637 µg/mL
- State ([1]; FeSSIF, 24 hours): turbid
- pH value ([1]; FeSSIF, 24 hours): 4.95
- Concentration ([1]; SGF, 4 hours): 1997 µg/mL
- State ([1]; SGF, 4 hours): soluble
- pH value ([1]; SGF, 4 hours): 2.37
- Concentration ([1]; SGF, 24 hours): 1994 µg/mL
- State ([1]; SGF, 24 hours): soluble
- pH value ([1]; SGF, 24 hours): 2.43
- solubility [4]: < 1.9 mg/mL

Compound: Cc1cccc(-c2nn3c(c2-c2ccnc4ccc(C(N)=O)cc24)CCC3)n1 [LY2157299, Galunisertib]
- Patients with a decrease in serum alpha-fetoprotein (AFP) levels by at least 20% (liver cancer patients): approximately 23%
